Molecules are shown by their SMILES.

This assay has as its target T1, volume-regulated anion channels (VRACs); LRRC8A-containing hexamer (Homo sapiens, UniProt Q8IWT6).
T1 construct: native channel in intact MCF10A cells; LRRC8 heterohexamer of undefined subunit composition, LRRC8A essential; A, C, D prominently expressed, B and E minimal
T1 sequence (Q8IWT6 1-810): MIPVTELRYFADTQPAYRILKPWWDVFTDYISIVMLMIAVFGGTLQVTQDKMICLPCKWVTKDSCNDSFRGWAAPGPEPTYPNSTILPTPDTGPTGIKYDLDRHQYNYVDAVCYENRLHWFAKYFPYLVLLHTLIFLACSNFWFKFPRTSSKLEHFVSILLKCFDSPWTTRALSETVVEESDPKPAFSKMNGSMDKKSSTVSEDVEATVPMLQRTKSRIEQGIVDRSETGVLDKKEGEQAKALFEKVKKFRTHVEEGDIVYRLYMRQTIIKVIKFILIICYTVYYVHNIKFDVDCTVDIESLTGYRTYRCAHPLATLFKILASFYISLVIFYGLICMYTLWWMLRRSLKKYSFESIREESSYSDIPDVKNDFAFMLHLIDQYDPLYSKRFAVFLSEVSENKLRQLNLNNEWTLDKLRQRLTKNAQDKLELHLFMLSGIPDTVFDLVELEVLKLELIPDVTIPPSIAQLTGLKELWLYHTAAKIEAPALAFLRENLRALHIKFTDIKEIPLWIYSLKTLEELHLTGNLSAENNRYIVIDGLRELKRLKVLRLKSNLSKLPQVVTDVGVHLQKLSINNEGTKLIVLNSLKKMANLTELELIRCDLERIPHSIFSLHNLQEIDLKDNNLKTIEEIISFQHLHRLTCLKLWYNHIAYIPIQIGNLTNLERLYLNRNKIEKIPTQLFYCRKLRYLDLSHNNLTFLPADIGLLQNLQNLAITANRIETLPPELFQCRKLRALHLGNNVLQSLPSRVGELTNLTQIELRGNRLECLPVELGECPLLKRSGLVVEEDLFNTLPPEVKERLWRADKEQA
T1 sequence (Q8TDW0 1-803 partner): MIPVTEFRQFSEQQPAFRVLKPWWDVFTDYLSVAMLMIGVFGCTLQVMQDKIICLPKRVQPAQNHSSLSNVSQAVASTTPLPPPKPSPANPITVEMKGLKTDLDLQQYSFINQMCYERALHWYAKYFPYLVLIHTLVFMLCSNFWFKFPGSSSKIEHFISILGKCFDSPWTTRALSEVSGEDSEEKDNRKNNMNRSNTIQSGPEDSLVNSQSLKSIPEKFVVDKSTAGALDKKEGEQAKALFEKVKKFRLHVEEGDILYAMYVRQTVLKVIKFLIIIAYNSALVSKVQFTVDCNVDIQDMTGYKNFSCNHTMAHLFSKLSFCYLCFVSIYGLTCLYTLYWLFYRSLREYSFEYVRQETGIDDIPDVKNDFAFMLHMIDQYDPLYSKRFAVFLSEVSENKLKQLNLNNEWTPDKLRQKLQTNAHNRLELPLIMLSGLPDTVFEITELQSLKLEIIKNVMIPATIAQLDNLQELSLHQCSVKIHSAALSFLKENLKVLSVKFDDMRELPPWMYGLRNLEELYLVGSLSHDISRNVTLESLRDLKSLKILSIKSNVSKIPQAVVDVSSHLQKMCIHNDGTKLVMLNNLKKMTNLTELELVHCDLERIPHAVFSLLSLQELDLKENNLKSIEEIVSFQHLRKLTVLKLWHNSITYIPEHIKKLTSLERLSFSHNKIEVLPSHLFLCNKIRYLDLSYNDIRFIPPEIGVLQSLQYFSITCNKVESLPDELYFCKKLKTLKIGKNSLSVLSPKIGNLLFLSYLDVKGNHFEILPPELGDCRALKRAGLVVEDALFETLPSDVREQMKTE
T1 sequence (Q7L1W4 1-858 partner): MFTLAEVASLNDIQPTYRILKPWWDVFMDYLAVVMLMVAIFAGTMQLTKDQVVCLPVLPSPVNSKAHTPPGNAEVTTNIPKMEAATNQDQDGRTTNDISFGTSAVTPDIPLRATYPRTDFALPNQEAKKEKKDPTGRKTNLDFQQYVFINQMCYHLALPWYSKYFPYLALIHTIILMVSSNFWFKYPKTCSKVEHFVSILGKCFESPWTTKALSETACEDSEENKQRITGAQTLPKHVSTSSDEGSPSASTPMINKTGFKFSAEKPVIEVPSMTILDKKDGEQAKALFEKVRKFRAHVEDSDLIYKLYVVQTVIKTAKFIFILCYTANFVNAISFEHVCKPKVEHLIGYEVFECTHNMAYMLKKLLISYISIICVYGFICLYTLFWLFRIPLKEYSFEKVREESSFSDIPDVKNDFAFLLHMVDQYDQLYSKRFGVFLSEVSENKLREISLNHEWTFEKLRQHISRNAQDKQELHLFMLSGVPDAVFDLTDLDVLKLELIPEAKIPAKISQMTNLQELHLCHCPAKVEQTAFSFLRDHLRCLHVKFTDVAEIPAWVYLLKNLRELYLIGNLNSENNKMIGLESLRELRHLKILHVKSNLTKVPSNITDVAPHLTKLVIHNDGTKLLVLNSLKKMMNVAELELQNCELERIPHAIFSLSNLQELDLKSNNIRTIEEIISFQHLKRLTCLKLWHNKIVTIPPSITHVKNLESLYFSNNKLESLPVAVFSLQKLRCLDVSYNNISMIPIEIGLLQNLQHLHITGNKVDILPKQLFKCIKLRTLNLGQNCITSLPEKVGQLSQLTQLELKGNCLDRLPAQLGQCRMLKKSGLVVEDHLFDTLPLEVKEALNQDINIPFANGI
The experiment in a line: luciferin-luciferase imaging of hypotonic diffuse ATP release in MCF10A cells. Format: cell-based. The settings on record: 50% hypotonic stress; pH 7.4, 30 °C; decay of ATP signal after DCPIB, exponential fit; indirect read-out (ATP release).

For the compound `CCCCC1(C2CCCC2)Cc2cc(OCCCC(=O)O)c(Cl)c(Cl)c2C1=O` (stereo not shown) [DCPIB, 4-[(2-Butyl-6,7-dichloro-2-cyclopentyl-2,3-dihydro-1-oxo-1H-inden-5-yl)oxy] butanoic acid], the half-inhibitory concentration (IC50) stood at 38.5 µM.

For the origin of these results see article PMC11774906, “Volume-regulated anion channels conduct ATP in undifferentiated mammary cells and promote tumorigenesis in xenograft nude mouse” (Frontiers in Cell and Developmental Biology, 2025).
